Source: ChEMBL document CHEMBL1121855, “Potential salicylamide antiplaque agents: in vitro antibacterial activity against Actinomyces viscosus” (J Med Chem, 1981)
≈ marks a conversion by molar mass, not a printed value. Each block holds one compound with its values, some of them ahead of it.

What was measured:
[1] = Distribution coefficient between octanol and aqueous phase at pH7.2; format: physicochemical; details: pH 7.2
[2] = Observed inhibitory activity against various Actinomycetes strains; details: actinomycetaceae
[3] = Partition coefficient is determined in octanol/buffer solution; format: physicochemical; details: octanol/buffer; read-out: logP
[4] = Dissociation constant is the negative logarithm of the equilibrium coefficient of the neutral and charged forms of the compound; format: physicochemical
[5] = system: Actinomyces viscosus; assay: In vitro antibacterial activity against Actinomyces viscosus M-100-2000; format: functional
[6] = system: Actinomyces naeslundii; assay: In vitro antibacterial activity against Actinomycetes naeslundii 8115; format: functional
[7] = system: Actinomyces naeslundii; assay: In vitro antibacterial activity against Actinomycetes naeslundii 12104; format: functional
[8] = system: Actinomyces israelii; assay: In vitro antibacterial activity against Actinomycetes israelii 28360; format: functional
[9] = system: Actinomyces israelii; assay: In vitro antibacterial activity against Actinomycetes israelii 12836; format: functional
[10] = system: Actinomyces israelii; assay: In vitro antibacterial activity against Actinomycetes israelii 10048; format: functional
[11] = system: Actinomyces viscosus; assay: In vitro antibacterial activity against Actinomycetes viscosus T14V; format: functional

SMILES: CCCCCCc1ccc(O)c(C(=O)Nc2cccc(C(F)(F)F)c2)c1
MIC [6]: 0.1 µg/mL (≈ 0.274 µM) | MIC [7]: 0.05 µg/mL (≈ 0.137 µM) | MIC [8]: > 5 µg/mL | MIC [9]: 0.5 µg/mL (≈ 1.37 µM) | MIC [10]: 0.5 µg/mL (≈ 1.37 µM) | MIC [11]: 0.05 µg/mL (≈ 0.137 µM) | MIC [5]: 0.5 µg/mL (≈ 1.37 µM)

SMILES: Cc1ccc(O)c(C(=O)NCCCCCCNC(=O)c2cc(C)ccc2O)c1
MIC [5]: > 20 µg/mL

SMILES: Cc1cccnc1NC(=O)c1cc(Br)cc(Br)c1O
MIC [5]: > 155 µg/mL

SMILES: O=C(Nc1nccs1)c1cc(Br)cc(Br)c1O
MIC [5]: 95 µg/mL (≈ 251 µM)

SMILES: Cc1ccc(O)c(C(=O)Nc2ccc(Br)cc2)c1
logD [1]: 4.38 | Log 1/MIC [2]: 5.09 | MIC [11]: 5.2 µg/mL (≈ 17 µM) | logP [3]: 4.61 | pKa [4]: 7.35 | MIC [5]: 2.5 µg/mL (≈ 8.17 µM)

SMILES: CCCCCCc1ccc(O)c(C(=O)Nc2nc3ccccc3s2)c1
MIC [5]: > 20 µg/mL

SMILES: O=C(NCCCCCCNC(=O)c1cc(Br)ccc1O)c1cc(Br)ccc1O
MIC [5]: > 20 µg/mL

SMILES: CCCCCCc1ccc(O)c(C(=O)NCc2ccc(Cl)c(Cl)c2)c1
MIC [6]: 0.5 µg/mL (≈ 1.31 µM) | MIC [7]: 0.5 µg/mL (≈ 1.31 µM) | MIC [8]: 1 µg/mL (≈ 2.63 µM) | MIC [9]: 1 µg/mL (≈ 2.63 µM) | MIC [10]: 0.5 µg/mL (≈ 1.31 µM) | MIC [11]: 0.5 µg/mL (≈ 1.31 µM) | MIC [5]: 0.5 µg/mL (≈ 1.31 µM)

SMILES: O=C(Nc1ccc(Br)cc1)c1cc(Br)cc(Br)c1O [TRIBROMSALAN]
MIC [6]: 1 µg/mL (≈ 2.22 µM) | MIC [7]: 1 µg/mL (≈ 2.22 µM) | logD [1]: 4.78 | Log 1/MIC [2]: 5.95 | MIC [8]: 5 µg/mL (≈ 11.1 µM) | MIC [9]: 0.5 µg/mL (≈ 1.11 µM) | MIC [10]: 1 µg/mL (≈ 2.22 µM) | MIC [11]: 1 µg/mL (≈ 2.22 µM) | logP [3]: 6.15 | pKa [4]: 5.85 | MIC [5]: 0.5 µg/mL (≈ 1.11 µM)

SMILES: CCCCCCCCCCCC(=O)c1ccc(O)c(C(=O)Nc2cccc(C(F)(F)F)c2)c1
MIC [6]: 0.05 µg/mL (≈ 0.108 µM) | MIC [7]: 0.1 µg/mL (≈ 0.216 µM) | MIC [8]: 0.1 µg/mL (≈ 0.216 µM) | MIC [9]: 0.5 µg/mL (≈ 1.08 µM) | MIC [10]: 0.1 µg/mL (≈ 0.216 µM) | MIC [11]: 0.1 µg/mL (≈ 0.216 µM) | MIC [5]: 0.5 µg/mL (≈ 1.08 µM)

SMILES: CCCCCCc1ccc(O)c(C(=O)NCc2ccc(C)c([N+](=O)[O-])c2)c1
MIC [5]: > 20 µg/mL

SMILES: O=C(Nc1nc2cc(Cl)ccc2o1)c1cc(Br)cc(Br)c1O
MIC [5]: > 35 µg/mL

SMILES: Cc1cc(C)nc(NC(=O)c2cc(Br)cc(Br)c2O)n1
MIC [5]: 200 µg/mL (≈ 499 µM)

The remaining compounds from weak to strong by MIC [5], led by results:

MIC [5]: 25 µg/mL (≈ 62.5 µM)
SMILES: Cc1cc(C)nc(NC(=O)c2cc(Br)cc(Br)c2O)c1

MIC [5]: 12 µg/mL (≈ 30.7 µM)
SMILES: O=C(NCC1CCCCC1)c1cc(Br)cc(Br)c1O

MIC [5]: 5 µg/mL (≈ 10.5 µM)
SMILES: CCCCCCCCCCCC(=O)c1ccc(O)c(C(=O)NCc2ccc(Cl)c(Cl)c2)c1

MIC [5]: 5 µg/mL (≈ 18.4 µM)
SMILES: Cc1ccc(O)c(C(=O)Nc2ccc([N+](=O)[O-])cc2)c1

MIC [5]: 4 µg/mL (≈ 9.54 µM)
SMILES: O=C(NCc1ccc(Cl)cc1)c1cc(Br)cc(Br)c1O

logD [1]: 3.16 | Log 1/MIC [2]: 5.05 | logP [3]: 4.58 | pKa [4]: 5.8 | MIC [5]: 3 µg/mL (≈ 8.9 µM)
SMILES: O=C(Nc1ccc(Br)cc1)c1cc([N+](=O)[O-])ccc1O

MIC [5]: 1.7 µg/mL (≈ 3.68 µM)
SMILES: O=C(Nc1nc2c(Cl)cccc2s1)c1cc(Br)cc(Br)c1O

logD [1]: 4.88 | Log 1/MIC [2]: 5.6 | logP [3]: 6.02 | pKa [4]: 6.1 | MIC [5]: 1 µg/mL (≈ 2.56 µM)
SMILES: CCCCCC(=O)c1ccc(O)c(C(=O)Nc2ccc(Br)cc2)c1

MIC [5]: 0.5 µg/mL (≈ 1.11 µM)
SMILES: CCCCCCCCCC(=O)c1ccc(O)c(C(=O)NCc2ccc(Cl)c(Cl)c2)c1

logD [1]: 5.88 | Log 1/MIC [2]: 5.92 | logP [3]: 7.02 | pKa [4]: 6.1 | MIC [5]: 0.5 µg/mL (≈ 1.2 µM)
SMILES: CCCCCCCC(=O)c1ccc(O)c(C(=O)Nc2ccc(Br)cc2)c1

MIC [5]: 0.5 µg/mL (≈ 1.23 µM)
SMILES: CCCCCCCC(=O)c1ccc(O)c(C(=O)Nc2cccc(C(F)(F)F)c2)c1

MIC [5]: 0.5 µg/mL (≈ 1.48 µM)
SMILES: CCCCc1ccc(O)c(C(=O)Nc2cccc(C(F)(F)F)c2)c1

MIC [5]: 0.5 µg/mL (≈ 1.4 µM)
SMILES: CCCCCCc1ccc(O)c(C(=O)NCc2cccc([N+](=O)[O-])c2)c1

MIC [5]: 0.2 µg/mL (≈ 0.495 µM)
SMILES: CCCCCCCCc1ccc(O)c(C(=O)Nc2ccc(Br)cc2)c1

MIC [5]: 0.1 µg/mL (≈ 0.26 µM)
SMILES: CCCCCCCC(=O)c1ccc(O)c(C(=O)Nc2ccc([N+](=O)[O-])cc2)c1
